How the values were obtained:
Type in all cases: cell-based
[1] = system: A549; assay: Cell proliferation assay, A549 (lung); details: Homo sapiens, 72 hours in presence of compound
Experimental: (§1) Seventeen cancer derived cell lines are used (GTL-16, N87, H1975, A549, H69, A2780, PC3, BT474, SKBR3, MCF-7, A375, MV4;11, K562, KM12L4A, H929, OPM-2 and KMS-11) to test the effect of (R)-2-amino-7-[2-(6-methoxy-pyridin-2-yl)-phenyl]-4-methyl-7,8-dihydro-6H-pyrido[4,3-d]pyrimidin-5-one. These cell lines cover the following 9 tumor types: Gastric, Lung, Ovarian, Prostate, Breast, Melanoma, Leukemia, Colon and Multiple myeloma. After division and medium change, cells from stock culture are seeded on cell plates and cultured for about 18 hours to allow cell growth and attachment before starting the assay. Then on the first day of the assay, (R)-2-amino-7-[2-(6-methoxy-pyridin-2-yl)-phenyl]-4-methyl-7,8-dihydro-6H-pyrido[4,3-d]pyrimidin-5-one is added to the medium at various concentrations. Cells are cultured up to 72 or 96 hours and cell proliferation is determined using commercially available cell proliferation kits.
(§2) Table 1 relates to the concentration in nM of (R)-2-amino-7-[2-(6-methoxy-pyridin-2-yl)-phenyl]-4-methyl-7,8-dihydro-6H-pyrido[4,3-d]pyrimidin-5-one which inhibits cell proliferation by 50% (IC50). […]

[2] = system: SKBR3; assay: Cell proliferation assay, SKBR3 (breast); details: Homo sapiens, SK-BR-3, 72 hours in presence of compound
Experimental: as §1, §2

[3] = system: A375m; assay: Cell proliferation assay, A375m (melanoma); details: 72 hours in presence of compound
Experimental: as §1, §2

[4] = system: MV4:11; assay: Cell proliferation assay, MV4:11 (leukemia); details: Homo sapiens, 72 hours in presence of compound
Experimental: as §1, §2

[5] = system: H929; assay: Cell proliferation assay, H929 (multiple myeloma); details: Homo sapiens, NCI-H929, 72 hours in presence of compound
Experimental: as §1, §2

[6] = system: LEXF JURKAT; assay: Clonogenic assay, LEXF JURKAT; details: Homo sapiens, Leukemia, T cell leukemia, soft agar, read-out: IC50 (colony formation)
Experimental: (§3) The anticancer activity of (R)-2-amino-7-[2-(6-methoxy-pyridin-2-yl)-phenyl]-4-methyl-7,8-dihydro-6H-pyrido[4,3-d]pyrimidin-5-one is evaluated in 30 human tumor xenografts in vitro using a clonogenic assay. In this assay, human cells derived from cancer patients are evaluated for the capacity of (R)-2-amino-7-[2-(6-methoxy-pyridin-2-yl)-phenyl]-4-methyl-7,8-dihydro-6H-pyrido[4,3-d]pyrimidin-5-one to inhibit the formation of 3 dimensional colonies. […] The tumor xenografts which have never been cultured in cell culture plastic dishes are isolated from nude mice. Tumor cell suspensions are prepared and incubated in 24 well plates containing layers of soft agar. Under these conditions a special subpopulation of cells selectively grows to colonies. (R)-2-amino-7-[2-(6-methoxy-pyridin-2-yl)-phenyl]-4-methyl-7,8-dihydro-6H-pyrido[4,3-d]pyrimidin-5one is tested in 6 concentrations up to 1000 nM. The tumor test panel comprises 1 to 10 models of 12 different human tumor types, which were bladder cancer, colon, gastric, non small cell lung (adeno, squamous cell, and large cell), small cell lung, mammary, ovary, and prostate cancer, as well as leukemia, lymphoma, melanoma, and sarcoma. Antitumor effects are recorded as inhibition of colony formation in relation to untreated controls. […]

[7] = system: LEXF K562; assay: Clonogenic assay, LEXF K562; details: Homo sapiens, Chronic myelogenous leukemia, soft agar, read-out: IC50 (colony formation)
Experimental: as §3

[8] = system: LEXF MOLT4; assay: Clonogenic assay, LEXF MOLT4; details: Homo sapiens, MOLT-4, Leukemia, ALL, T lymphoblast, soft agar, read-out: IC50 (colony formation)
Experimental: as §3

[9] = system: LXFA 526; assay: Clonogenic assay, LXFA 526; details: Homo sapiens, Lung, non-small cell, Adenocarcinoma, soft agar, read-out: IC50 (colony formation)
Experimental: as §3

[10] = system: LXFE 1422; assay: Clonogenic assay, LXFE 1422; details: Homo sapiens, Lung, non-small cell, Squamous cell carcinoma, soft agar, read-out: IC50 (colony formation)
Experimental: as §3

[11] = system: LXFE 211; assay: Clonogenic assay, LXFE 211; details: Homo sapiens, Lung, non-small cell, Squamous cell carcinoma, soft agar, read-out: IC50 (colony formation)
Experimental: as §3

[12] = system: LXFL 1647; assay: Clonogenic assay, LXFL 1647; details: Homo sapiens, Lung, non-small cell, Large cell lung carcinoma, soft agar, read-out: IC50 (colony formation)
Experimental: as §3

[13] = system: MAXF 1384; assay: Clonogenic assay, MAXF 1384; details: Homo sapiens, Breast, Adenocarcinoma, soft agar, read-out: IC50 (colony formation)
Experimental: as §3

[14] = system: MAXF 401; assay: Clonogenic assay, MAXF 401; details: Homo sapiens, MAXF401, Breast, Pap. adenocarcinoma, soft agar, read-out: IC50 (colony formation)
Experimental: as §3

[15] = system: MAXF 574; assay: Clonogenic assay, MAXF 574; details: Homo sapiens, Breast, Carcinoma, soft agar, read-out: IC50 (colony formation)
Experimental: as §3

[16] = system: MAXF 713; assay: Clonogenic assay, MAXF 713; details: Homo sapiens, Breast, Adenocarcinoma, soft agar, read-out: IC50 (colony formation)
Experimental: as §3

[17] = system: MEXF 462; assay: Clonogenic assay, MEXF 462; details: Homo sapiens, Amelanotic melanoma, soft agar, read-out: IC50 (colony formation)
Experimental: as §3

[18] = system: OVXF 899; assay: Clonogenic assay, OVXF 899; details: Homo sapiens, Ovary, Pap. serous adenocarcinoma, soft agar, read-out: IC50 (colony formation)
Experimental: as §3

[19] = system: SXF 1301; assay: Clonogenic assay, SXF 1301; details: Homo sapiens, Sarcoma, Malignant rhabdomyosarcoma, soft agar, read-out: IC50 (colony formation)
Experimental: as §3

[20] = system: SXF 463; assay: Clonogenic assay, SXF 463; details: Homo sapiens, Sarcoma, Rhabdomyosarcoma, soft agar, read-out: IC50 (colony formation)
Experimental: as §3

## COc1cccc(-c2ccccc2[C@H]2Cc3nc(N)nc(C)c3C(=O)N2)n1 [(R)-2-amino-7-[2-(6-methoxy-pyridin-2-yl)-phenyl]-4-methyl-7,8-dihydro-6H-pyrido[4,3-d]pyrimidin-5-one]
[1]
  GI50: 16 nM
[2]
  GI50: 18 nM
[3]
  GI50: 36 nM
[4]
  GI50: 4 nM
[5]
  GI50: 20 nM
[6]
  IC50: 4 nM
[7]
  IC50: 13 nM
[8]
  IC50: 21 nM
[9]
  IC50: 36 nM
[10]
  IC50: 20 nM
[11]
  IC50: 0.76 nM
[12]
  IC50: 203 nM
[13]
  IC50: 14 nM
[14]
  IC50: 15 nM
[15]
  IC50: 316 nM
[16]
  IC50: > 1000 nM
[17]
  IC50: 65 nM
[18]
  IC50: > 100 nM
[19]
  IC50: 26 nM
[20]
  IC50: 5 nM
